These are literature values, as cited in patent US20030171260A1, “Compositions and methods utilizing hydroxamates to scavenge oxidant toxins” (priority 2002, published 2003).

Structures can show the parent of a compound that is named as a salt.

With `CCCCOc1ccc(CC(=O)NO)cc1` [bufexamac], in the series with rat (in vivo, po), the “oral LD50 dose” value is reported as 3,370 mg/kg. For the same compound, the “intraperitoneal LD50 dose” value with rat (intraperitoneal) is listed as 805 mg/kg. The “subcutaneous LD50 dose” value in the series with rat (subcutaneous) is on record as > 5,000 mg/kg.
With `CC(=O)N(O)CCCCCNC(=O)CCC(=O)N(O)CCCCCNC(=O)CCC(=O)N(O)CCCCCN` [desferoxamine mesylate], the “time to leave the vascular space after administration” value is at most 60 min.
